Square brackets hold non-standard residues; d marks the D form. Peptide text beside a SMILES is read from it. * marks the point of attachment. Crotonyl(E) = C/C=C/C(=O)*; Dab = NCC[C@H](N)C(=O)O; Aib = CC(C)(N)C(=O)O
T1: CBP80/CBP20 complex (Homo sapiens, UniProt Q09161)
T1 sequence (Q09161 1-790): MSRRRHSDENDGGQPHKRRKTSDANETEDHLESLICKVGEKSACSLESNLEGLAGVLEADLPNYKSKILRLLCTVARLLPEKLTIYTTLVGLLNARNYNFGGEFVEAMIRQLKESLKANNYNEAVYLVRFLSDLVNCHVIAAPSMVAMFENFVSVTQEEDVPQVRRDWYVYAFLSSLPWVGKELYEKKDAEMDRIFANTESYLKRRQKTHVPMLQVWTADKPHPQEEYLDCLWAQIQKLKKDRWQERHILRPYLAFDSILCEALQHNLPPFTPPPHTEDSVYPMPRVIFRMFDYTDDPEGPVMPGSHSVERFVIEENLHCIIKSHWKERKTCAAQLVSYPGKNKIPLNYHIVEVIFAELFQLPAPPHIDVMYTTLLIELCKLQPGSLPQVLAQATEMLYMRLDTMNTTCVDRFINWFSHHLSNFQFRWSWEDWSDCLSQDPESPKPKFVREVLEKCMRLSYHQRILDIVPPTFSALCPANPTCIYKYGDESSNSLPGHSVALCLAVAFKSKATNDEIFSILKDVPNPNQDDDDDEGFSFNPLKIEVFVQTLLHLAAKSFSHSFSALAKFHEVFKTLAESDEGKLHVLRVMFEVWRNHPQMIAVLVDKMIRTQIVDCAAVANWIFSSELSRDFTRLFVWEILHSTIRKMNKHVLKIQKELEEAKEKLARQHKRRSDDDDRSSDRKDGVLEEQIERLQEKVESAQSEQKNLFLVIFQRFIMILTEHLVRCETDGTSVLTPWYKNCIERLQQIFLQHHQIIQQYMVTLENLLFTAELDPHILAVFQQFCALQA
T1 sequence (P52298 1-156 partner): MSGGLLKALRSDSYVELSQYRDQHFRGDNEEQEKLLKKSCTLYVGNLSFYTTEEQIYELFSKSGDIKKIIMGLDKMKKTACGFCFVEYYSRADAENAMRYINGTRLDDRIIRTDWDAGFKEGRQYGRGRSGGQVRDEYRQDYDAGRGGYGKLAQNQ

T2: CBP80/CBP20 complex (human, UniProt Q09161 20-790; P52298 1-156, limits assumed)
T2 construct: Used in the fluorescence polarization assays; In the crystal it also carried the cap analogue (m7GpppG / m7GpppA); also called CBC complex; CBC
T2 sequence (looked up) 1: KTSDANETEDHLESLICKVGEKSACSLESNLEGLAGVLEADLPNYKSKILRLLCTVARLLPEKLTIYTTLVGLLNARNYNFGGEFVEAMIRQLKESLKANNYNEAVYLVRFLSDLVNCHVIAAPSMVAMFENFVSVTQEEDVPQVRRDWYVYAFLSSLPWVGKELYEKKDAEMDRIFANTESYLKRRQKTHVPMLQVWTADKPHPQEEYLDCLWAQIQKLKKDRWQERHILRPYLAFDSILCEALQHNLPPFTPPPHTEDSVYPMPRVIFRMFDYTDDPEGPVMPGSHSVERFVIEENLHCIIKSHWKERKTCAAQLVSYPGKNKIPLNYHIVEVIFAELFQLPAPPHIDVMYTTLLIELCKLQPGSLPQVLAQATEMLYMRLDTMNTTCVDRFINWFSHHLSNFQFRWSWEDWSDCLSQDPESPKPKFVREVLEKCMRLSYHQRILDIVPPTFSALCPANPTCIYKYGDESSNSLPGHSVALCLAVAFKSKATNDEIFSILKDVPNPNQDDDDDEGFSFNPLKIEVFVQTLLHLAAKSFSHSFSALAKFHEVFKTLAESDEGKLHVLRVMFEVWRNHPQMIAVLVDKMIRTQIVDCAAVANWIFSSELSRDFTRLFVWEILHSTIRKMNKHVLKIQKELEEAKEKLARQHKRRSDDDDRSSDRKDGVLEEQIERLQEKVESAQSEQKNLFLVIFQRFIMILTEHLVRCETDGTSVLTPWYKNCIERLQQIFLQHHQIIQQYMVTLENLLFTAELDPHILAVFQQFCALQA
T2 sequence (looked up) 2: T1 sequence (P52298 1-156 partner)

B1: PGC1β-Cterm (Ac-AMDFDSLLKEAQQSLH-NH2) (peptide)
peptide: Ac-AMDFDSLLKEAQQSLH-NH2
notes: also called PGC1β-Cterm peptide; unlabeled version of the PGC1β peptide

These molecules were tested against T1, CBP80/CBP20 complex (assay: fluorescence polarization based competition assay (displacement of FITC-labeled PGC1β peptide)). Settings: 1 μM FITC-labeled PGC1β (FITC-Ahx-AMDFDSLLKEAQQSLH-NH2), 30 μM CBP80/CBP20 complex, HEPES buffer pH 7.5.
Format: binding
Method: The ability of α-MOrPHs to disrupt the PGC1β-CBP80 interaction will be assessed and quantified via a fluorescence polarization-based competition assay, in which disruption of the complex formed between a fluorescein-conjugated PGC1β peptide and CBP80 is measured upon adding increasing concentrations of each inhibitory α-MOrPH (FIG. 5A). […] Initially, the length of the linker in the inhibitory α-MOrPH will be optimized for maximal activity toward disrupting the PGC1β-CBP80 interaction (e.g. using SP1-3, FIG. 4).
(§1) The relative activity of the PGC1β mimics toward disrupting the interaction between CBC and the fluorescein-conjugated PGC1β-derived peptide was measured in a competition assay. Briefly, a fixed amount of CBC and fluorescein-conjugated PGC1β-derived peptide are incubated with increasing amounts of the PGC1β mimic (FIG. 11A). From the resulting dose-dependent inhibition curves, the in vitro CBC inhibitory activity of the PGC1β mimic compound is measured based on their respective half-maximal inhibitory concentration (IC50) (FIG. 5B). Using this assay, various PGC1β mimics were evaluated for their relative ability to target CBC and disrupt its binding interaction with PGC1β. […] Short peptides derived from the C-terminal domain of PGC1β and PRC proteins, two other members of the PGC1 family of transcriptional coactivators, were also to bind CBC and inhibits its interaction with the fluorescein-labeled PGC1β peptide with IC50 values in the low micromolar range.
IC50 values were determined by adapting the fluorescence polarization assay described above to a competition format. 1 μM of the FITC-labeled PGC1β peptide (FITC-Ahx-AMDFDSLLKEAQQSLH-NH2) was incubated with 30 μM of the CBP80-CBP20 complex in HEPES Buffer (10 mM HEPES [pH 7.5], 50 mM NaCl and 5 mM 2-mercaptoethanol). The inhibitory peptide was added to the solution at varying concentrations, typically ranging from 1 to 200 μM. Half-maximal inhibitory concentration (IC50) values were calculated from the resulting inhibition curves as given by dose-dependent decrease in the fluorescence polarization signal. All measurements were performed at least in duplicates.

Row | IC50 | Molecule
1 | < 100 µM | CSCC[C@H](NC(C)=O)C(=O)N[C@@H](C)C(=O)N[C@@H](Cc1ccccc1)C(=O)N[C@@H](CC(=O)O)C(=O)N[C@@H](CO)C(=O)N[C@@H](CC(C)C)C(=O)N[C@@H](CC(C)C)C(=O)N[C@@H](CCCCN)C(=O)NC(C)(C)C(=O)N[C@@H](C)C(=O)N[C@@H](CCC(N)=O)C(=O)N[C@@H](CCC(N)=O)C(=O)N[C@@H](CO)C(N)=O [PGC1β-16, Ac-MAFDSLLK(Aib)AQQS-NH2] (Ac-MAFDSLLK[Aib]AQQS-NH2)
2 | < 100 µM | C/C=C/C(=O)NCC[C@H](NC(=O)[C@H](CC(C)C)NC(=O)[C@H](CC(C)C)NC(=O)[C@H](CO)NC(=O)[C@H](CC(=O)O)NC(=O)[C@H](Cc1ccccc1)NC(=O)[C@H](CC(=O)O)NC(=O)[C@H](CCSC)NC(C)=O)C(=O)N[C@@H](CCC(=O)O)C(=O)N[C@@H](C)C(=O)N[C@@H](CCC(N)=O)C(=O)N[C@@H](CCC(N)=O)C(=O)N[C@@H](CO)C(N)=O [PGC1β-18, Ac-MDFDSLL(CrtDab)EAQQS-NH2] (Ac-MDFDSLL[Dab](Crotonyl(E))EAQQS-NH2)
3 | ~35 µM | Ac-AMDFDSLLKEAQQSLH-NH2 [PGC1β-Cterm, Ac-AMDFDSLLKEAQQSLH-NH2]
4 | < 100 µM | Ac-MAFDSLLKAAQQS-NH2 [PGC1β-15, Ac-MAFDSLLKAAQQS-NH2]
5 | < 100 µM | Ac-MAFDSLLKNAAAS-NH2 [PGC1β-13, Ac-MAFDSLLKNAAAS-NH2]
6 | < 100 µM | Ac-MAFDSLLKNAAQS-NH2 [PGC1β-14, Ac-MAFDSLLKNAAQS-NH2]
7 | < 100 µM | Ac-MAFDSMLKAAQQS-NH2 [PGC1β-17, Ac-MAFDSMLKAAQQS-NH2]
8 | > 200 µM | Ac-MDADSLLKEAQQS-NH2 [PGC1β-3A, Ac-MDADSLLKEAQQS-NH2]
9 | > 200 µM | Ac-MDFASLLKEAQQS-NH2 [PGC1β-4A, Ac-MDFASLLKEAQQS-NH2]
10 | 64 ± 2 µM | Ac-MDFDALLKEAQQS-NH2 [PGC1β-5A, Ac-MDFDALLKEAQQS-NH2]
11 | > 200 µM | Ac-MDFDSALKEAQQS-NH2 [PGC1β-6A, Ac-MDFDSALKEAQQS-NH2]
12 | > 200 µM | Ac-MDFDSLAKEAQQS-NH2 [PGC1β-7A, Ac-MDFDSLAKEAQQS-NH2]
13 | 69 µM | Ac-MDFDSLLKEAQQS-NH2 [PGC1β-wt, Ac-MDFDSLLKEAQQS-NH2]
14 | > 200 µM | Ac-MDFDSLLKEGQQS-NH2 [PGC1β-10A, Ac-MDFDSLLKEGQQS-NH2]

Row | Molecule | IC50
15 | Ac-MDFDSLLKEAAQS-NH2 [PGC1β-11A, Ac-MDFDSLLKEAAQS-NH2] | 64 ± 2 µM

Each molecule was assayed against T2, CBP80/CBP20 complex (assay: FP competition assay; 1 µM FITC-Ahx-…-NH2 as competitor, 30 µM CBP80/CBP20 complex). Settings: not given.
Method: as §1, with “(IC₅₀)” for “(IC50)”, “IC₅₀” for “IC50”
^aAc = acetyl; Biot = biotin; Ahx = 6-aminohexanoic acid; Aib = 2-aminoisobutyric acid; CrtDab = N^γ-crotonyl-2,4-diaminobutyric acid. C-terminal ‘-NH₂’ refers to amidated C-terminal end of the peptide. ^bIC₅₀ was determined using fluorescence polarization based competition assay in the presence of 1 μM of FITC-labeled PGC1β (FITC-Ahx-[…]-NH₂, where FITC is fluorescein-isothiocyanate) and 30 μM of the CBP80/CBP20 complex in HEPES buffer (10 mM HEPES, 50 mM NaCl, 5 mM BME, pH 7.5).
IC₅₀ values were determined by adapting the fluorescence polarization assay described above to a competition format. 1 μM of the FITC-labeled PGC1β peptide (FITC-Ahx-[…]-NH₂) was incubated with 30 μM of the CBP80-CBP20 complex in HEPES Buffer (10 mM HEPES [pH 7.5], 50 mM NaCl and 5 mM 2-mercaptoethanol).

Row | IC50 | Molecule
16 | 50 µM | Ac-MAFDSLLKEAQQS-NH2 [PGC1β-2A (Ac-MAFDSLLKEAQQS-NH2)]
17 | 56 µM | Ac-MDFDSLLKEAQAS-NH2 [PGC1β-12A (Ac-MDFDSLLKEAQAS-NH2)]
18 | 72 µM | Ac-MDFDSLLAEAQQS-NH2 [PGC1β-8A (Ac-MDFDSLLAEAQQS-NH2)]
19 | 93 µM | Ac-SLDFDDLLKQAQKNLRR-NH2 [PRC-Cterm (Ac-SLDFDDLLKQAQKNLRR-NH2)]
20 | 80 µM | Ac-MDFDSLLKEAQQSRRRRRRRR-NH2 [PGC1β-19 (Ac-MDFDSLLKEAQQSRRRRRRRR-NH2)]
21 | 32 µM | B1
22 | 26 µM | Ac-SLDFDSLLKEAQRSLRR-NH2 [PGC1α-Cterm (Ac-SLDFDSLLKEAQRSLRR-NH2)]
